Calls of active or inactive are those of the source. The rule behind the calls is not given here.
Assays:
Monocyte [1] = assay: Anti-osteoclastogensis in C57BL/6 mouse bone marrow monocytes assessed as inhibition of RANKL/M-CSF induced osteoclastogenesis at 10 uM incubated for 5 days relative to control; type: functional; details: C57BL/6, Monocyte, 120 h, time 5 day
Monocyte [2] = assay: Anti-osteoclastogensis in C57BL/6 mouse bone marrow monocytes assessed as inhibition of RANKL/M-CSF induced osteoclastogenesis at 10 uM incubated for 5 days; type: functional, cell-based; details: C57BL/6, Monocyte, 120 h
[3] = Cytotoxicity against C57BL/6 mouse bone marrow monocytes assessed as reduction in cell viability incubated for 48 hrs by MTT assay; type: toxicity, cell-based, Monocyte
[4] = Selectivity index, ratio of CC50 for cytotoxicity against C57BL/6 mouse bone marrow monocytes to IC50 for anti-osteoclastogensis in C57BL/6 mouse bone marrow monocytes assessed as inhibition of RANKL/M-CSF induced osteoclastogenesis; type: cell-based, Monocyte; details: read-out: Ratio CC50/IC50
RAW264.7 [5] = assay: Inhibition of RANKL-induced MAPK signaling in mouse RAW264.7 cells assessed as inhibition of ERK1/2 phosphorylation incubated for 60 mins in presence of RANKL by Western blot analysis; type: cell-based; details: dose 5-10 µM
RAW264.7 [6] = assay: Inhibition of RANKL-induced MAPK signaling in mouse RAW264.7 cells assessed as inhibition of JNK1/2 phosphorylation incubated for 60 mins in presence of RANKL by Western blot analysis; type: cell-based; details: dose 5-10 µM
RAW264.7 [7] = assay: Inhibition of RANKL-induced MAPK signaling in mouse RAW264.7 cells assessed as inhibition of p38 phosphorylation incubated for 60 mins in presence of RANKL by Western blot analysis; type: cell-based; details: dose 5-10 µM
RAW264.7 [8] = assay: Inhibition of RANKL-induced NFkappaB signaling in mouse RAW264.7 cells assessed as inhibition of NFkappab nuclear translocation at 10 uM incubated for 60 mins in presence of RANKL by Western blot analysis; type: cell-based

SMILES | inhibition at 10 µM (Monocyte [1]) | IC50 (Monocyte [2]) | CC50 at 48 h [3] | selectivity ratio [4] | inhibition (RAW264.7 [5]) | inhibition (RAW264.7 [6]) | inhibition (RAW264.7 [7]) | inhibition (RAW264.7 [8])
C=C1CC[C@@H]2OC(=O)C=C(C[C@]3(C)CC(=O)O[C@H]3CO)C(=O)[C@]2(C)[C@@H]1C | 75% | 4.2 µM | > 30 µM | > 7 | Dose-Dependent Effect | Dose-Dependent Effect | Dose-Dependent Effect | Active
C=C[C@@]1(C)CC(=O)O[C@H]1C1=CC[C@H]2C(C)(C)CC[C@H](O)[C@]2(C)C1=O | 88.4% | 3 µM | > 30 µM | > 10 | Dose-Dependent Effect | Dose-Dependent Effect | Dose-Dependent Effect | Active

Reference: ChEMBL document CHEMBL5357006, “Pestanoid A, a Rearranged Pimarane Diterpenoid Osteoclastogenesis Inhibitor from a Marine Mesophotic Zone Chalinidae Sponge-Associated Fungus, Pestalotiopsis sp. NBUF145” (J Nat Prod, 2024)
